Consider one molecule from patent publication US20250032631A1, “ANTI-SEZ6 ANTIBODY DRUG CONJUGATES” (AbbVie Inc., priority 2022, published 2025).

As usually defined, the EC50 is the concentration needed to bring the measured effect to its halfway point. A word on the IC50: it is the point on the concentration scale where inhibition reaches its midpoint.

Holding throughout (type): cell-based
Test [1] has as its system Calu-6 cells (lung adenocarcinoma). As to the kind of experiment: Cell proliferation (CellTiter-Glo luminescence), Calu-6. Particulars: Homo sapiens, Calu-6, read-out: EC50, TOP1i compound potency, Calu-6. Here is the method:
The effect of TOP1i drugs on cell viability was assessed by monitoring ATP presence for metabolically active cells. Proliferation of Calu-6 cells (lung adenocarcinoma) and A375 cells (malignant melanoma) were quantified using CellTiter-Glo® luminescence.
In general terms: In ATP-based viability assays light output follows the ATP content of the culture.

The subject of test [2] is A375 cells (malignant melanoma). As to the kind of experiment: Cell proliferation (CellTiter-Glo luminescence), A375. Particulars: Homo sapiens, A-375, read-out: EC50, TOP1i compound potency, A375. The source says: Proliferation of Calu-6 cells (lung adenocarcinoma) and A375 cells (malignant melanoma) were quantified using CellTiter-Glo® luminescence.
The next test has as its system NCI-H524. As to the kind of experiment: SCLC cell viability assay (CellTiter-Glo), NCI-H524. Particulars: Homo sapiens, 72 h; NCI-H524, 3 days; read-out: IC50, 50% cell growth inhibition. Here is the method: (§1) SCLC cell lines NCI-H526 (“H526”), NCI-H524 (“H524”), NCI-H146 (“H146”), NCI-H1963 (“H1963”) and SW-1271 were obtained from the American Type Culture Collection (ATCC). COR-L95 cells were obtained from Millipore Sigma (#96020733). SBC-5 cells were obtained from the Japanese Collection of Research Bioresources Cell Bank (JCRB).
(§2) SCLC cell lines (shown in Table 2, column 1) were plated in white 384-well plates (Corning® 3765) at 1,000-2,000 cells/30 μl RPMI-1640 base media containing 10% heat-inactivated FBS (fetal bovine serum). Cell plates were incubated overnight at 37° C. in 5% CO2. Using a Tecan D300e Digital Dispenser, a dose response using a stock concentration of ADC or solution containing Example 1G and DMSO (dimethyl sulfoxide) was applied to the cells on day 0 and incubated for an additional 10 days (ADCs) or 3 days (Example 1G) at 37°° C. in 5% CO2. Samples were run in duplicate. Cell viability was assessed with the CellTiter-Glo™ Luminescent Cell Viability Assay (Promega, #G7570) according to the manufacturer's instructions, with the exception that the plates were shaken for 30 minutes prior to reading. Luminescence was read on the BioTek Synergy Neo2, and data was analyzed using GraphPad Prism software.

A further test has as its system NCI-H526. Nature of the test: SCLC cell viability assay (CellTiter-Glo), NCI-H526. Particulars: Homo sapiens, 72 h; NCI-H526, 3 days; read-out: IC50, 50% cell growth inhibition. The procedure:
as §1, §2

For a further test, the system named is COR-L95. Nature of the test: SCLC cell viability assay (CellTiter-Glo), COR-L95. Particulars: 72 h; COR-L95, 3 days; read-out: IC50, 50% cell growth inhibition. Here is the method: as §1, §2
For a further test, the system named is NCI-H146. As to the kind of experiment: SCLC cell viability assay (CellTiter-Glo), NCI-H146. Particulars: Homo sapiens, 72 h; NCI-H146, 3 days; read-out: IC50, 50% cell growth inhibition. Here is the method:
as §1, §2

The test system of the next test is NCI-H1963. As to the kind of experiment: SCLC cell viability assay (CellTiter-Glo), NCI-H1963. Particulars: Homo sapiens, 72 h; NCI-H1963, 3 days; read-out: IC50, 50% cell growth inhibition. The procedure:
as §1, §2

A further test has as its system SW-1271. Nature of the test: SCLC cell viability assay (CellTiter-Glo), SW-1271. Particulars: SW1271, 72 h; SW-1271, 3 days; read-out: IC50, 50% cell growth inhibition. Here is the method: as §1, §2
Another test relates to SBC-5. Nature of the test: SCLC cell viability assay (CellTiter-Glo), SBC-5. Particulars: Homo sapiens, 72 h; SBC-5, 3 days; read-out: IC50, 50% cell growth inhibition. Here is the method:
as §1, §2

For the next test, the system named is SCLC cell lines. As to the kind of experiment: SCLC cell viability assay, summary over the cell line panel. Particulars: all SCLC cell lines tested, TOP1 inhibitor alone. Here is the method: as §1
as §2, with “software. […]” for “software.”

As to `CC[C@@]1(O)C(=O)OCc2c1cc1n(c2=O)Cc2c-1nc1cc3c(cc1c2C12CC(N)(C1)C2)OCO3` [Example 1G, (7S)-14-(3-aminobicyclo[1.1.1]pentan-1-yl)-7-ethyl-7-hydroxy-2H,10H-[1,3]dioxolo[4,5-g]pyrano[3′,4′:6,7]indolizino[1,2-b]quinoline-8,11(7H,13H)-dione], the EC50 in [1] was 0.57 nM; in [2], 0.5 nM. The IC50 with NCI-H524 was 1.68 nM; in the test with NCI-H526, 0.2 nM; with COR-L95, 5.71 nM; with NCI-H146, 21.6 nM; in the test with NCI-H1963 it was 6.28 nM; with SW-1271, 2.49 nM. Further, in the test on SBC-5, the IC50 amounted to 1.26 nM. For the same molecule, the “IC50 in all cell lines” value in the test on SCLC cell lines is “sub-to low-nM”.
